Data from ChEMBL document CHEMBL1134858, “Identification of a novel 1'-[5-((3,5-dichlorobenzoyl)methylamino)-3-(3,4-dichlorophenyl)-4-(methoxyimino)pentyl]-2-oxo-(1,4'-bipiperidine) as a dual NK(1)/NK(2) antagonist” (Bioorg Med Chem Lett, 2002).
Where “and” joins values, the source holds several entries; their conditions need not be identical. Identical values can stand only once.

tested on: not listed separately; experiment: Bioavailability in dog; format: ADME, organism-based, Canis lupus familiaris; settings: in vivo

| SMILES | bioavailability [%] |
| --- | --- |
| CNC(=O)CC1CCCN(C2CCN(CC[C@@H](/C(CN(C)C(=O)c3cc(Cl)cc(Cl)c3)=N/OC)c3ccc(Cl)c(Cl)c3)CC2)C1=O (stereo not given in full) | 66 |
| CO/N=C(\CN(C)C(=O)c1cc(Cl)cc(Cl)c1)[C@H](CCN1CCC(N2CCCC(CC(N)=O)C2=O)CC1)c1ccc(Cl)c(Cl)c1 (stereo not given in full) | 37 |
| CO/N=C(\CN(C)C(=O)c1cc(Cl)cc(Cl)c1)[C@H](CCN1CCC(N2CCCCC2=O)CC1)c1ccc(Cl)c(Cl)c1 | 5 |

tested on: not listed separately; experiment: AUC in dog at 0-24 hr by peroral administration at 3 mpk; format: ADME, organism-based, Canis lupus familiaris; parameters: dose 3 mpk, time < 24 hr, route oral; settings: plasma, po, 3 mg/kg

| SMILES | AUC at 24 h [µg·h/mL] |
| --- | --- |
| CO/N=C(\CN(C)C(=O)c1cc(Cl)cc(Cl)c1)[C@H](CCN1CCC(N2CCCC(CC(=O)N(C)C)C2=O)CC1)c1ccc(Cl)c(Cl)c1 (stereo not given in full) | 3.46 |
| CNC(=O)CC1CCCN(C2CCN(CC[C@@H](/C(CN(C)C(=O)c3cc(Cl)cc(Cl)c3)=N/OC)c3ccc(Cl)c(Cl)c3)CC2)C1=O (stereo not given in full) | 13.6 |
| CO/N=C(\CN(C)C(=O)c1cc(Cl)cc(Cl)c1)[C@H](CCN1CCC(N2CCCC(CC(N)=O)C2=O)CC1)c1ccc(Cl)c(Cl)c1 (stereo not given in full) | 9.49 |
| CO/N=C(\CN(C)C(=O)c1cc(Cl)cc(Cl)c1)[C@H](CCN1CCC(N2CCCCC2=O)CC1)c1ccc(Cl)c(Cl)c1 | 1.22 |

tested on: Cavia porcellus; experiment: In vivo NK1 activity in the guinea pig is characterized by the compounds ability to inhibit the increase in airway microvascular leakage (AML) produced by a SP challenge; format: functional; settings: not given

| SMILES | ED50 [mg/kg] |
| --- | --- |
| CO/N=C(\CN(C)C(=O)c1cc(Cl)cc(Cl)c1)[C@H](CCN1CCC(N2CCCC(CC(=O)N(C)C)C2=O)CC1)c1ccc(Cl)c(Cl)c1 (stereo not given in full) | 3 |
| CNC(=O)CC1CCCN(C2CCN(CC[C@@H](/C(CN(C)C(=O)c3cc(Cl)cc(Cl)c3)=N/OC)c3ccc(Cl)c(Cl)c3)CC2)C1=O (stereo not given in full) | 1 |
| CO/N=C(\CN(C)C(=O)c1cc(Cl)cc(Cl)c1)[C@H](CCN1CCC(N2CCCC(CC(N)=O)C2=O)CC1)c1ccc(Cl)c(Cl)c1 (stereo not given in full) | 1 |
| CO/N=C(\CN(C)C(=O)c1cc(Cl)cc(Cl)c1)[C@H](CCN1CCC(N2CCCCC2=O)CC1)c1ccc(Cl)c(Cl)c1 | 1 |

tested on: Cavia porcellus; experiment: In vivo NK2 activity is characterized by the compounds ability to inhibit bronchoconstriction produced by a NKA challenge; format: functional; settings: Lung

| SMILES | ED50 [mg/kg] |
| --- | --- |
| CO/N=C(\CN(C)C(=O)c1cc(Cl)cc(Cl)c1)[C@H](CCN1CCC(N2CCCC(CC(=O)N(C)C)C2=O)CC1)c1ccc(Cl)c(Cl)c1 (stereo not given in full) | 3 |
| CNC(=O)CC1CCCN(C2CCN(CC[C@@H](/C(CN(C)C(=O)c3cc(Cl)cc(Cl)c3)=N/OC)c3ccc(Cl)c(Cl)c3)CC2)C1=O (stereo not given in full) | 3 |
| CO/N=C(\CN(C)C(=O)c1cc(Cl)cc(Cl)c1)[C@H](CCN1CCC(N2CCCC(CC(N)=O)C2=O)CC1)c1ccc(Cl)c(Cl)c1 (stereo not given in full) | 4 |
| CO/N=C(\CN(C)C(=O)c1cc(Cl)cc(Cl)c1)[C@H](CCN1CCC(N2CCCCC2=O)CC1)c1ccc(Cl)c(Cl)c1 | 3 |

tested on: Cavia porcellus; experiment: In vivo NK1 activity in the guinea pig is characterized by the compounds ability to inhibit the increase in airway microvascular leakage (AML) produced by a SP challenge at 10 mg/kg; format: functional; settings: not given

| SMILES | inhibition in vivo at 10 mg/kg [%] |
| --- | --- |
| CO/N=C(\CN(C)C(=O)c1cc(Cl)cc(Cl)c1)[C@H](CCN1CCC(N2CCCC(CC(=O)N3CC(O)C3)C2=O)CC1)c1ccc(Cl)c(Cl)c1 (stereo not given in full) | 45 |
| CO/N=C(\CN(C)C(=O)c1cc(Cl)cc(Cl)c1)[C@H](CCN1CCC(N2CCCC(CC(=O)N3CCOCC3)C2=O)CC1)c1ccc(Cl)c(Cl)c1 (stereo not given in full) | 47 |

tested on: Cavia porcellus; experiment: In vivo NK2 activity is characterized by the compounds ability to inhibit bronchoconstriction produced by a NKA challenge at 10 mg/kg; format: functional; settings: Lung

| SMILES | inhibition in vivo at 10 mg/kg [%] |
| --- | --- |
| CO/N=C(\CN(C)C(=O)c1cc(Cl)cc(Cl)c1)[C@H](CCN1CCC(N2CCCC(CC(=O)N3CCOCC3)C2=O)CC1)c1ccc(Cl)c(Cl)c1 (stereo not given in full) | 97 |

tested on: Cavia porcellus; experiment: In vivo NK2 activity is characterized by the compounds ability to inhibit bronchoconstriction produced by a NKA challenge at 10 mpk; format: functional; settings: Lung

| SMILES | inhibition in vivo at 10 mg/kg [%] |
| --- | --- |
| CO/N=C(\CN(C)C(=O)c1cc(Cl)cc(Cl)c1)[C@H](CCN1CCC(N2CCCC(CC(=O)N3CC(O)C3)C2=O)CC1)c1ccc(Cl)c(Cl)c1 (stereo not given in full) | 64 |

target: T1, Substance-K receptor (Cavia porcellus, UniProt Q64077); experiment: In vitro binding to Tachykinin receptor 2; settings: not given
T1 sequence (Q64077 whole entry): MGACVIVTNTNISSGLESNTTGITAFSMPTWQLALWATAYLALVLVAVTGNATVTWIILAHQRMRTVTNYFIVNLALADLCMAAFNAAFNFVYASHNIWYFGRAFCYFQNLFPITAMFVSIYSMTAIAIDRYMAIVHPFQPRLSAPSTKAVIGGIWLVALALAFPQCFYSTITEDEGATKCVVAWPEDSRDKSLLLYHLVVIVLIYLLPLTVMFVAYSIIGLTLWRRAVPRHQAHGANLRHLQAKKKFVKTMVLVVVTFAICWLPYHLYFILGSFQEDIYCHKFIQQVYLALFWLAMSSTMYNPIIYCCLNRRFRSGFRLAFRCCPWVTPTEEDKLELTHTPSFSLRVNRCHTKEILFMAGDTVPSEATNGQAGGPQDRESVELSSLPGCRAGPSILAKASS

| SMILES | Ki |
| --- | --- |
| CO/N=C(\CN(C)C(=O)c1cc(Cl)cc(Cl)c1)[C@H](CCN1CCC(N2CCCC(CC(=O)N(C)C)C2=O)CC1)c1ccc(Cl)c(Cl)c1 (stereo not given in full) | 0.2 nM |
| CNC(=O)CC1CCCN(C2CCN(CC[C@@H](/C(CN(C)C(=O)c3cc(Cl)cc(Cl)c3)=N/OC)c3ccc(Cl)c(Cl)c3)CC2)C1=O (stereo not given in full) | 0.4 nM |
| CO/N=C(\CN(C)C(=O)c1cc(Cl)cc(Cl)c1)C(CCN1CCC(N2CCCCC2=O)CC1)c1ccc(Cl)c(Cl)c1 (stereo not given) | 2 nM |
| CNC(=O)CC1CCCN(C2CCN(CC[C@H](/C(CN(C)C(=O)c3cc(Cl)cc(Cl)c3)=N/OC)c3ccc(Cl)c(Cl)c3)CC2)C1=O (stereo not given in full) | 0.9 nM |
| CO/N=C(\CN(C)C(=O)c1cc(Cl)cc(Cl)c1)[C@H](CCN1CCC(N2CCCC(CC(N)=O)C2=O)CC1)c1ccc(Cl)c(Cl)c1 (stereo not given in full) | 0.3 nM |
| CO/N=C(\CN(C)C(=O)c1cc(Cl)cc(Cl)c1)[C@H](CCN1CCC(N2CCCCC2=O)CC1)c1ccc(Cl)c(Cl)c1 | 0.8 nM and 1 nM |
| CO/N=C(\CN(C)C(=O)c1cc(Cl)cc(Cl)c1)[C@H](CCN1CCC(N2CCCC(CC(=O)N3CC(O)C3)C2=O)CC1)c1ccc(Cl)c(Cl)c1 (stereo not given in full) | 0.3 nM |
| CO/N=C(\CN(C)C(=O)c1cc(Cl)cc(Cl)c1)[C@H](CCN1CCC(N2CCCC(CC(=O)N3CCOCC3)C2=O)CC1)c1ccc(Cl)c(Cl)c1 (stereo not given in full) | 0.4 nM |

target: T2, Substance-P receptor (Cavia porcellus, UniProt P30547); experiment: In vitro binding to Tachykinin receptor 1; settings: not given
T2 sequence (P30547 whole entry): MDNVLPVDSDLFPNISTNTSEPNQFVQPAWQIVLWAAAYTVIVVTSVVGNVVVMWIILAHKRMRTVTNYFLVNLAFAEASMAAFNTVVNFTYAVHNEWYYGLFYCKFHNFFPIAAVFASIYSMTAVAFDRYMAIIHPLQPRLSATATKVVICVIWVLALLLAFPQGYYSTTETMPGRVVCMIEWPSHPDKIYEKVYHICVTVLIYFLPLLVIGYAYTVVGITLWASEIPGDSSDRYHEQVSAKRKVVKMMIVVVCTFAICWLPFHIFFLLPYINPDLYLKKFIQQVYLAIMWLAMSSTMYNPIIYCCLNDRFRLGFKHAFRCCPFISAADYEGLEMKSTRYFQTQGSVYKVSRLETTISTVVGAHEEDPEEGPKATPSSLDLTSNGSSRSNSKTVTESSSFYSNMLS

| SMILES | Ki |
| --- | --- |
| CO/N=C(\CN(C)C(=O)c1cc(Cl)cc(Cl)c1)[C@H](CCN1CCC(N2CCCC(CC(=O)N(C)C)C2=O)CC1)c1ccc(Cl)c(Cl)c1 (stereo not given in full) | 0.8 nM |
| CNC(=O)CC1CCCN(C2CCN(CC[C@@H](/C(CN(C)C(=O)c3cc(Cl)cc(Cl)c3)=N/OC)c3ccc(Cl)c(Cl)c3)CC2)C1=O (stereo not given in full) | 1.3 nM |
| CO/N=C(\CN(C)C(=O)c1cc(Cl)cc(Cl)c1)C(CCN1CCC(N2CCCCC2=O)CC1)c1ccc(Cl)c(Cl)c1 (stereo not given) | 5 nM |
| CNC(=O)CC1CCCN(C2CCN(CC[C@H](/C(CN(C)C(=O)c3cc(Cl)cc(Cl)c3)=N/OC)c3ccc(Cl)c(Cl)c3)CC2)C1=O (stereo not given in full) | 1.5 nM |
| CO/N=C(\CN(C)C(=O)c1cc(Cl)cc(Cl)c1)[C@H](CCN1CCC(N2CCCC(CC(N)=O)C2=O)CC1)c1ccc(Cl)c(Cl)c1 (stereo not given in full) | 0.8 nM |
| CO/N=C(\CN(C)C(=O)c1cc(Cl)cc(Cl)c1)[C@H](CCN1CCC(N2CCCCC2=O)CC1)c1ccc(Cl)c(Cl)c1 | 1.2 nM and 1 nM |
| CO/N=C(\CN(C)C(=O)c1cc(Cl)cc(Cl)c1)[C@H](CCN1CCC(N2CCCC(CC(=O)N3CC(O)C3)C2=O)CC1)c1ccc(Cl)c(Cl)c1 (stereo not given in full) | 0.6 nM |
| CO/N=C(\CN(C)C(=O)c1cc(Cl)cc(Cl)c1)[C@H](CCN1CCC(N2CCCC(CC(=O)N3CCOCC3)C2=O)CC1)c1ccc(Cl)c(Cl)c1 (stereo not given in full) | 0.7 nM |

target: T1, Substance-K receptor; experiment: In vitro functional NK2 activity as inhibition of guinea pig bronchoconstriction; format: tissue-based, Lung; settings: read-out: pA2 (converted)

| SMILES | Kb [nM] |
| --- | --- |
| CO/N=C(\CN(C)C(=O)c1cc(Cl)cc(Cl)c1)[C@H](CCN1CCC(N2CCCC(CC(=O)N(C)C)C2=O)CC1)c1ccc(Cl)c(Cl)c1 (stereo not given in full) | 39.8 |
| CNC(=O)CC1CCCN(C2CCN(CC[C@@H](/C(CN(C)C(=O)c3cc(Cl)cc(Cl)c3)=N/OC)c3ccc(Cl)c(Cl)c3)CC2)C1=O (stereo not given in full) | 15.8 |
| CO/N=C(\CN(C)C(=O)c1cc(Cl)cc(Cl)c1)C(CCN1CCC(N2CCCCC2=O)CC1)c1ccc(Cl)c(Cl)c1 (stereo not given) | 50.1 |
| CNC(=O)CC1CCCN(C2CCN(CC[C@H](/C(CN(C)C(=O)c3cc(Cl)cc(Cl)c3)=N/OC)c3ccc(Cl)c(Cl)c3)CC2)C1=O (stereo not given in full) | 39.8 |
| CO/N=C(\CN(C)C(=O)c1cc(Cl)cc(Cl)c1)[C@H](CCN1CCC(N2CCCC(CC(N)=O)C2=O)CC1)c1ccc(Cl)c(Cl)c1 (stereo not given in full) | 10 |
| CO/N=C(\CN(C)C(=O)c1cc(Cl)cc(Cl)c1)[C@H](CCN1CCC(N2CCCCC2=O)CC1)c1ccc(Cl)c(Cl)c1 | 20 |
| CO/N=C(\CN(C)C(=O)c1cc(Cl)cc(Cl)c1)[C@H](CCN1CCC(N2CCCC(CC(=O)N3CC(O)C3)C2=O)CC1)c1ccc(Cl)c(Cl)c1 (stereo not given in full) | 50.1 |
| CO/N=C(\CN(C)C(=O)c1cc(Cl)cc(Cl)c1)[C@H](CCN1CCC(N2CCCC(CC(=O)N3CCOCC3)C2=O)CC1)c1ccc(Cl)c(Cl)c1 (stereo not given in full) | 12.6 |

target: T2, Substance-P receptor; experiment: In vitro functional NK1 activity as inhibition of guinea pig bronchoconstriction; format: tissue-based, Lung; settings: read-out: pA2 (converted)

| SMILES | Kb [nM] |
| --- | --- |
| CO/N=C(\CN(C)C(=O)c1cc(Cl)cc(Cl)c1)[C@H](CCN1CCC(N2CCCC(CC(=O)N(C)C)C2=O)CC1)c1ccc(Cl)c(Cl)c1 (stereo not given in full) | 12.6 |
| CNC(=O)CC1CCCN(C2CCN(CC[C@@H](/C(CN(C)C(=O)c3cc(Cl)cc(Cl)c3)=N/OC)c3ccc(Cl)c(Cl)c3)CC2)C1=O (stereo not given in full) | 12.6 |
| CNC(=O)CC1CCCN(C2CCN(CC[C@H](/C(CN(C)C(=O)c3cc(Cl)cc(Cl)c3)=N/OC)c3ccc(Cl)c(Cl)c3)CC2)C1=O (stereo not given in full) | 10 |
| CO/N=C(\CN(C)C(=O)c1cc(Cl)cc(Cl)c1)[C@H](CCN1CCC(N2CCCC(CC(N)=O)C2=O)CC1)c1ccc(Cl)c(Cl)c1 (stereo not given in full) | 10 |
| CO/N=C(\CN(C)C(=O)c1cc(Cl)cc(Cl)c1)[C@H](CCN1CCC(N2CCCCC2=O)CC1)c1ccc(Cl)c(Cl)c1 | 10 |
| CO/N=C(\CN(C)C(=O)c1cc(Cl)cc(Cl)c1)[C@H](CCN1CCC(N2CCCC(CC(=O)N3CC(O)C3)C2=O)CC1)c1ccc(Cl)c(Cl)c1 (stereo not given in full) | 10 |
| CO/N=C(\CN(C)C(=O)c1cc(Cl)cc(Cl)c1)[C@H](CCN1CCC(N2CCCC(CC(=O)N3CCOCC3)C2=O)CC1)c1ccc(Cl)c(Cl)c1 (stereo not given in full) | 15.8 |
